In patent publication US20220340566A1, “BENZYL AMINE-CONTAINING 5,6-HETEROAROMATIC COMPOUNDS USEFUL AGAINST MYCOBACTERIAL INFECTION” (priority 2019, published 2022):

How the values were obtained:
[1] = test system: Mycobacterium avium ATCC700898; test: Determination of IC85 against M. avium (resazurin fluorescence); format: cell-based; conditions: Mycobacterium avium, ATCC700898, M. avium ATCC700898, CAMHB medium, 37° C., 3 days incubation then resazurin, fluorescence one day later; read-out: IC85
[2] = Metabolic stability test in pooled human liver microsomes; format: in vitro ADME; conditions: human liver microsomes 0.5 mg protein/mL, 1 mmol/L NADPH, 37° C., 30 minutes
Outline: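 Remaining-rate readout: parent compound left after 30 min versus 0 min (set as 100%), measured by LC/MS/MS or SPE/MS. Oxidative reaction ran at 37° C. with 1 mmol/L NADPH, 0.5 mg protein/mL pooled human microsomes, 50 mmol/L Tris-HCl pH 7.4 buffer.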

SMILES | IC85 [1] | MS_h_% (remaining amount of compound after reaction, 0 minute = 100%) [2]
CCc1nc2cc(F)ccn2c1C(=O)NCc1ccc(N2CCN(c3ccc(OC(F)(F)F)cc3)[C@H]3CCCC[C@@H]32)c(F)c1.Cl [Compound I-1-124] | 0.87 µM | 63%
CCc1nc2cc(F)ccn2c1C(=O)NCc1ccc(N2CC=C(c3ccc(OC(F)(F)F)cc3)CC2)c(F)c1.Cl [Compound I-1-87] | 0.0079 µM | 86%
CCOc1ccc(N2CCN(c3ccc(CNC(=O)c4c(CC)nc5ccc(Cl)cn45)c(F)c3)C[C@@H]2C)cc1.Cl [Compound I-1-100] | 0.046 µM | 65%
Cc1ccn2nc(C)c(C(=O)NCc3ccc(N4CCN(c5ccc(OC(F)(F)F)cc5)[C@H](C)C4)c(F)c3)c2c1.Cl [Compound I-1-71] | 0.1 µM | 78%
Cc1nn2ccccc2c1C(=O)NCc1ccc(N2CCN(c3ccc(OC(F)(F)F)cc3)[C@@H](C)C2)c(F)c1.Cl [Compound I-1-104] | 0.092 µM | 72%
Cc1cn2c(C(=O)NCc3ccc(N4CC5(CCN(c6ccc(C(F)(F)F)cc6)CC5)C4)c(F)c3)c(C)nc2s1 [Compound I-3-43] | 0.15 µM | 64.1%
CCOc1ccc(N2CCN(c3ccc(CNC(=O)c4c(CC)nc5ccc(Cl)cn45)c(F)c3)C[C@@H]2C)c(F)c1.Cl [Compound I-1-101] | 0.47 µM | 90%
Cc1ccn2c(C(=O)NCc3ccc(C4CCN(C5CN(CC(F)(F)F)C5)CC4)c(F)c3)c(C)nc2c1 [Compound I-3-34] | 0.61 µM | 71.9%
CCCCOc1ccc(N2CCC(c3ccc(CNC(=O)c4c(CC)nc5cc(F)ccn45)c(F)c3)CC2)cc1.Cl [Compound I-1-151] | 0.01 µM | 88%
CCc1nc2cc(F)ccn2c1C(=O)NCc1ccc(N2CCN(c3ccc(OC(C)C)cc3)[C@@H](C)C2)c(F)c1.Cl [Compound I-1-111] | 0.0071 µM | 88%
CCc1nc2cc(F)ccn2c1C(=O)NCc1ccc(-n2cc3c(n2)CN(c2ccc(OC(F)(F)F)cc2)C3)c(F)c1.Cl [Compound I-3-36] | 0.2 µM | 69%
CCc1nc2ccc(Cl)cn2c1C(=O)NCc1ccc(N2CCN(c3ccc(OC(F)(F)F)cc3F)[C@@H](C)C2)c(F)c1.Cl [Compound I-1-98] | 0.0088 µM | 76%
[2H]c1c(C([2H])([2H])[2H])c([2H])n2c(C(=O)NCc3ccc(-c4ccc(C(F)(F)F)cc4)cc3)c(C)nc2c1[2H] [Compound I-3-11] | 0.0028 µM | 84.7%
COc1ccn2nc(C)c(C(=O)NCc3cc(F)c(N4CCC(c5ccc(OC(F)(F)F)cc5)CC4)c(F)c3)c2c1.Cl [Compound I-1-133] | 0.019 µM | 81%
CCc1nc2cc(F)ccn2c1C(=O)NCc1ccc(N2CCC(c3ccc(OC(F)(F)F)cc3)CC2)c(F)c1.Cl [Compound I-1-68] | 0.013 µM | 91%
Cc1cn2c(C(=O)NCc3ccc(N4CC=C(c5ccc(OC(F)(F)F)cc5)CC4)c(F)c3)c(C)nc2s1.Cl [Compound I-3-12] | 0.34 µM | 84.4%
CCc1nc2ccc(Cl)cn2c1C(=O)NCc1ccc(N2CCN(c3ccc(OCC4CC4)cc3)[C@@H](C)C2)c(F)c1.Cl [Compound I-1-54] | 0.034 µM | 79%

SMILES | IC85 [1] | MS_h_% (remaining amount of compound after reaction, 0 minute = 100%) [2]
COc1ccn2c(C(=O)NCc3ccc(N4CCN(c5ccc(OC(F)(F)F)cc5)[C@@H](C)C4)c(F)c3)c(C)nc2c1 [Compound I-2-2] | 0.37 µM | 97.7%
Cc1nc2ccc(Cl)cn2c1C(=O)NCc1ccc(N2C[C@H](C)N(c3ccc(OC(F)(F)F)cc3)C[C@H]2C)c(F)c1 [Compound I-1-40] | 0.022 µM | 89%
Cc1ccn2c(C(=O)NCc3ccc(N4CCN(c5ccc(C(F)(F)F)cn5)CC4)c(C(F)(F)F)c3)c(C)nc2c1 [Compound I-2-13] | 0.35 µM | 67.6%
[2H]c1c(C([2H])([2H])[2H])c([2H])c2nc(C)c(C(=O)NCc3ccc(C4CCN(c5ccc(OC(F)(F)F)cc5)CC4)c(F)c3)n2c1[2H] [Compound I-3-5] | 0.021 µM | 93.7%
Cc1nc2ccc(Cl)cn2c1C(=O)NCc1ccc(N2CCN(c3ccc(OC(F)(F)F)cc3)[C@@H](C)C2)c(Cl)c1.Cl [Compound I-1-140] | 0.0057 µM | 89%
CCc1nc2cc(F)ccn2c1C(=O)NCc1ccc(N2CCN(c3ccc(OC(F)(F)C(F)(F)F)cc3)[C@@H](C)C2)c(F)c1.Cl [Compound I-1-121] | 0.003 µM | 95%
Cc1ccn2c(C(=O)NCc3ccc(N4CCN(c5ccc(OC(F)(F)F)cc5)C(C)(C)C4)c(F)c3)c(C)nc2c1 [Compound I-1-31] | 0.14 µM | 82%
Cc1ccn2c(C(=O)NCc3ccc(C4CCN(c5ccc(OC(F)(F)F)cn5)CC4)c(C)c3)c(C)nc2c1 [Compound I-1-7] | 0.17 µM | 87%
CCc1nc2ccc(Cl)cn2c1C(=O)NCc1ccc(C2CCN(c3ccc(OCC4CC4)cn3)CC2)c(F)c1.Cl [Compound I-1-77] | 0.022 µM | 59%
CCOc1ccc(N2CCN(c3ccc(CNC(=O)c4c(CC)nc5ccc(Cl)cn45)cc3F)C[C@@H]2C)cc1OC.Cl [Compound I-1-55] | 0.69 µM | 84%
COc1ccn2nc(C)c(C(=O)NCc3ccc(N4CCN(c5ccc(OC(F)(F)F)cc5)[C@@H](C)C4)c(Cl)c3)c2c1.Cl [Compound I-1-132] | 0.014 µM | 62%
Cc1nc2cnccn2c1C(=O)NCc1ccc(N2CCN(c3ccc(OC(F)(F)F)cc3)CC2)c(F)c1 [Compound I-3-48] | 0.66 µM | 60.4%
CCc1nc2cc(F)ccn2c1C(=O)NCc1cc(F)c(N2CCC(c3ccc(OC(F)(F)F)cc3)CC2)c(F)c1.Cl [Compound I-1-88] | 0.0061 µM | 89%
CCc1nc2ccc(F)cn2c1C(=O)NCc1ccc(N2CCN(c3ccc(OC(F)(F)F)cc3)[C@@H](C)C2)c(F)c1 [Compound I-1-34] | 0.008 µM | 65%
Cc1cn2c(C(=O)NCc3cc(F)c(N4CCC(c5ccc(OC(F)(F)F)cc5)CC4)c(F)c3)c(C)nc2s1.Cl [Compound I-3-16] | 0.11 µM | 81.4%
CCc1nc2ccc(Cl)cn2c1C(=O)NCc1ccc(-c2cccc(OC(F)(F)F)c2)c(F)c1 [Compound I-3-2] | 0.0023 µM | 97.7%
